Laboratory results taken from article PMC5449446, “Metabolic Value Chemoattractants Are Preferentially Recognized at Broad Ligand Range Chemoreceptor of Pseudomonas putida KT2440” (Frontiers in Microbiology, 2017).

Experiments:
PcaY_PP-LBD [1] = target: T1, PcaY_PP-LBD (Pseudomonas putida, UniProt Q88JK6); assay: biochemical; format: binding, Pseudomonas putida KT2440
T1 construct: His-tag (from the pET28b vector; inferred from NdeI/BamHI cloning and HisTrap purification) (N); made in house; host or cells: Escherichia coli BL21 (DE3)
Procedure: Experiments were carried out at 25°C using a VP-ITC titration calorimeter (Microcal Inc., Northampton, Massachusetts). […] Obtained data were corrected with the heat changes measured for the injection of ligand into buffer. Data were normalized with the protein concentration (Bradford assay) and fitted with the “One Binding Site” model of the MicroCal version of the ORIGIN 7.0 software (OriginLab Corporation, Northampton, MA, United States), leaving all parameters floating.

P. putida KT2440 = assay: Growth in M9 minimal medium with ligand as sole C-source; format: cell-based, Pseudomonas putida KT2440; conditions: 10 mM (2 mM for poorly soluble) ligand
Procedure: P. putida KT2440R was grown in the same medium supplemented with rifampicin (10 μg ml^-1). […] When necessary, the pH of the medium was adjusted to 7.0 prior to inoculation. Bacterial growth rates were monitored by measuring the OD660 until cultures reached the stationary phase. The growth rate during the exponential growth (m) was calculated according to m = (LnOD2-LnOD1).(t2-t1)^-1, where OD2/t2 and OD1/t1 correspond to the OD660/time at the end and the beginning of the time interval. The generation time (G) was defined by G = Ln2 μ^-1. […] Normalized growth yield per carbon source after 24 h was determined applying correlation factors between cell dry weight and OD660 determined in batch cultures and assuming that all the carbon source was consumed during growth. Data were fitted by linear least squares regression or submitted to the chi-squared test with Yates correction using in both cases the Graph Pad Prism v7.02 software.

McpP = target: McpP; design: method as in ref (6) (a number printed in a supplementary file, which may have a reference list of its own: not looked up in the article's list); conditions: ITC, purified recombinant LBD; ref (6); cited from earlier work
McpS = target: McpS; design: method as in ref (7-9) (a number printed in a supplementary file, which may have a reference list of its own: not looked up in the article's list); conditions: ITC, purified recombinant LBD; ref (7-9); cited from earlier work
[2] = test system: Pseudomonas putida KT2440; assay: Quantitative capillary chemotaxis assay; format: cell-based; conditions: 30 min, wild type KT2440
Procedure: Subsequently, the cells were re-suspended in the same buffer, adjusted to an OD660 of 0.15 and 230 μl aliquots of this bacterial culture were placed into 96-well plates. For the quantitative assays, one-microliter capillary tubes (Microcaps, Drummond Scientific, Ref. […]) were heat-sealed at one end and filled with either the chemotaxis buffer (negative control) or chemotaxis buffer containing the chemoeffector. The capillaries were immersed into the bacterial suspension and incubated for 30 min at room temperature. Capillaries were subsequently removed from the bacterial suspension, rinsed with sterile water and the content expelled into 1 ml of M9 medium. Serial dilutions were plated onto LB medium (containing the appropriate antibiotics) and the number of colony forming units was determined. In all cases, data were corrected with the number of cells that swam into buffer containing capillaries.

McpU = target: McpU; design: method as in ref (3) (a number printed in a supplementary file, which may have a reference list of its own: not looked up in the article's list); conditions: ITC, purified recombinant LBD; ref (3); cited from earlier work
PcaY_PP-LBD [3] = target: T1, PcaY_PP-LBD; design: species or system Pseudomonas putida KT2440; conditions: saturating ligand (400 μM), 10°C
Procedure: Experiments were performed in a Beckman Coulter Optima XL-A analytical ultracentrifuge (Beckman-Coulter, Palo Alto, CA, United States) equipped with UV-visible absorbance detection system, using an An50Ti 8-hole rotor, 12 mm path-length charcoal-filled epon double-sector centerpieces. The sedimentation velocity (SV) experiments were carried out at a rotor speed of 40,000 rpm and 10°C using 400 μl samples in analysis buffer. […] Analysis buffer with or without ligands was used as reference. […] A least squares boundary modeling of the SV data was used to calculate sedimentation coefficient distributions with the size-distribution c(s) method ([Schuck, 2000]) implemented in the SEDFIT v11.71 software. […] The multi-speed sedimentation equilibrium experiments were carried out at 10°C and 12,000, 14,000, and 18,000 rpm until equilibrium was reached. […] Generally two wavelengths were used per sample.

Tar-LBD = test system: Tar-LBD; design: method as in Milligan and Koshland, 1993; conditions: estimated; ref Milligan and Koshland, 1993; cited from earlier work
MCP2983 = test system: MCP2983; design: method as in Ni et al., 2015; conditions: ref Ni et al., 2015; cited from earlier work
[4] = target: the molecule itself; assay: AUC; sedimentation velocity with saturating quinate or shikimate (400 uM), 40,000 rpm, 10°C, analysis buffer (5 mM PIPES, 5 mM MES, 5 mM Tris-HCl, pH 8.0)
[5] = target: the molecule itself; assay: AUC; multi-speed, multi-wavelength sedimentation equilibrium, ligand-free protein, six concentrations 15-280 uM, 12,000, 14,000 and 18,000 rpm, 10°C, analysis buffer pH 8.0; global fit to a monomer-dimer self-association model (SEDPHAT); dimer to monomers

Row | Molecule | Kd (PcaY_PP-LBD [1]) [µM] | ∆G (PcaY_PP-LBD [1]; ITC) [kcal/mol] | ∆H (PcaY_PP-LBD [1]; ITC) [kcal/mol] | capacity to support growth as sole carbon source (P. putida KT2440) | also measured
1 | O=C(O)C1=CC(=O)C(O)C(O)C1 (stereo not shown) [3-Dehydroshikimate, 3-dehydroshikimate] | 6 | -7.11 ± 0.03 | -19.9 ± 0.3 | supported bacterial growth | 
2 | O=C(O)c1ccc(O)cc1 [4-HBA, 4-hydroxybenzoate] | 7.2 | -7.01 ± 0.08 | -33.2 ± 1.4 | supported bacterial growth | increase in affinity as compared to benzoate (PcaY_PP-LBD [1]; ITC): around 12 fold
3 | CC(=O)O [Acetate] |  |  |  |  | Kd (McpP): 34 µM; Kd (McpS): 574 µM
4 | O=C(O)c1ccccc1 [Benzoate, benzoate] | 90 ± 8 | -5.51 ± 0.06 | -13.3 ± 0.5 | supported bacterial growth | chemotactic response [2]: much weaker
5 | NCCCCCN [Cadaverine] |  |  |  |  | Kd (McpU): 22 µM
6 | C[C@H](O)C(=O)O [L-lactate] |  |  |  |  | Kd (McpP): 107 µM
7 | CCC(=O)O [Propionate] |  |  |  |  | Kd (McpP): 34 µM
8 | O=C(O)c1ccc(O)c(O)c1 [Protocatechuate, protocatechuate] | 6.4 | -7.08 ± 0.04 | -22.9 ± 1.2 | supported bacterial growth | chemotactic response [2]: much weaker
9 | NCCCCN [Putrescine] |  |  |  |  | Kd (McpU): 2 µM
10 | CC(=O)C(=O)O [Pyruvate] |  |  |  |  | Kd (McpP): 39 µM
11 | O=C(O)[C@]1(O)C[C@@H](O)[C@@H](O)[C@H](O)C1 [Quinate, quinate] | 3.7 | -7.40 ± 0.02 | -13.2 ± 0.4 | supported bacterial growth | sedimentation coefficient s20,w of PcaY_PP-LBD in presence of ligand (PcaY_PP-LBD [3]): 3.1 S; chemotactic response [2]: very strong responses
12 | O=C(O)C1=CC(O)C(O)C(O)C1 (stereo not shown) [Shikimate, shikimate] | 4.4 | -7.30 ± 0.1 | -16.6 ± 1.1 |  | sedimentation coefficient s20,w of PcaY_PP-LBD in presence of ligand (PcaY_PP-LBD [3]): 3.1 S; chemotactic response [2]: very strong responses
13 | NCCCCNCCCN [Spermidine] |  |  |  |  | Kd (McpU): 4.5 µM
14 | N[C@@H](CC(=O)O)C(=O)O [aspartate] |  |  |  |  | decrease of the dimer self-association constant, factor (Tar-LBD): around 100
15 | O=C(O)/C=C(/CC(=O)O)C(=O)O [cis-aconitate] |  |  |  |  | binding to recombinant LBD (MCP2983): recognized; KD (PcaY_PP-LBD [1]; ITC at 25°C, 25 μM protein, One Binding Site model, means and SD of three experiments): did not show any binding
16 | PcaY_PP-LBD, recombinant ligand binding domain of the PcaY_PP (PP2643) chemoreceptor of Pseudomonas putida KT2440 (domain or fragment, UniProt Q88JK6 44-196, looked up, Cloned NdeI/BamHI into pET28b with a stop codon in the reverse primer; No tag removal is described) GSDQQITELDQTAHQSDRLNNALLMAIRSSANVSSGFIEQLGGHDESAGKRMALSVELNNKSQALVDEFVENAREPALRGLATELQATFAEYAKAVAGQREATRQRSLEQYFKVNSDAGNAMGRLQTLRQQLVTTLSERGQQIMLESDRRLAR |  |  |  |  | stoichiometry N [4]: 2; Kd [5]: 57.5 µM
